Legend:
Type in all cases: cell-based
[1] = tested on: Bm7 lung cancer cells; experiment: cytotoxicity assay, FIG. 1B and Table 2 summary
Protocol: (§1) Please refer to FIG. 1A, FIG. 1B and Table 2, which show the analysis results of the compound of Formula (I) inhibiting ADAM9 activity. In FIG. 1A, Bm7 lung cancer cells were treated with the derivatives of the compound 6X-0310, and then cultured under anchorage-free culture condition. The expressions of ADAM9 and CDCP1 in Bm7 lung cancer cells were detected by Western blot, in which EF1α is an internal control, and mock represents Bm7 lung cancer cells without treatment. […] In the experiment, the compounds of Formula (I) of Example 1 to Example 32 were further performed cytotoxicity assay to measure the IC50 value of the compounds of Formula (I) of the present disclosure in lung cancer cell lines.

[2] = tested on: lung cancer cells (TC1); experiment: cytotoxicity assay in TC1 cells; parameters: key to effect of inhibiting tumor cell growth: “+” represents that the compound has the effect of inhibiting tumor cell growth; settings: for IC50: TC-1
Protocol: as §1

[3] = tested on: HNOF; experiment: cytotoxicity assay in HNOF cells; parameters: key to effect of inhibiting tumor cell growth: “+” represents that the compound has the effect of inhibiting tumor cell growth; settings: HNOF
[4] = cytotoxicity assay in HNOF cells; parameters: key to effect of inhibiting tumor cell growth: “+” represents that the compound has the effect of inhibiting tumor cell growth; settings: human, HNOF cells
[5] = tested on: lung cancer cells (Bm7brmx2-1st); experiment: cytotoxicity assay in Bm7brmx2-1st cells; parameters: key to effect of inhibiting tumor cell growth: “+” represents that the compound has the effect of inhibiting tumor cell growth
Protocol: as §1

[6] = cytotoxicity assay in 293 cells; parameters: key to effect of inhibiting tumor cell growth: “+” represents that the compound has the effect of inhibiting tumor cell growth; settings: 293
[7] = tested on: kidney cancer cells (293); experiment: cytotoxicity assay in 293 cells; parameters: key to effect of inhibiting tumor cell growth: “+” represents that the compound has the effect of inhibiting tumor cell growth; settings: Homo sapiens, HEK293
[8] = tested on: lung cancer cells (Bm7brmx2-2nd); experiment: cytotoxicity assay in Bm7brmx2-2nd cells; parameters: key to effect of inhibiting tumor cell growth: “+” represents that the compound has the effect of inhibiting tumor cell growth
Protocol: as §1

[9] = tested on: CDCP1 in Bm7 lung cancer cells; experiment: Western blot of ADAM9 and CDCP1 expression in Bm7 cells; settings: anchorage-free culture
Protocol: as §1

[10] = tested on: lung cancer cells (Bm7brmx2); experiment: cytotoxicity assay in Bm7brmx2 cells; parameters: key to effect of inhibiting tumor cell growth: “+” represents that the compound has the effect of inhibiting tumor cell growth
Protocol: as §1

[11] = tested on: lung cancer cells (H1299); experiment: cytotoxicity assay in H1299 cells; parameters: key to effect of inhibiting tumor cell growth: “+” represents that the compound has the effect of inhibiting tumor cell growth; settings: for effect of inhibiting tumor cell growth: H1299; for IC50: Homo sapiens, NCI-H1299
Protocol: as §1

[12] = tested on: lung cancer cells (A549); experiment: cytotoxicity assay in A549 cells; parameters: key to effect of inhibiting tumor cell growth: “+” represents that the compound has the effect of inhibiting tumor cell growth; settings: for IC50: Homo sapiens
Protocol: as §1

SMILES | tumor cell cytotoxicity compared with the core structure compound 6X-0310 [1] | effect of inhibiting tumor cell growth [2] | IC50 [2] [µM] | effect of inhibiting tumor cell growth [3] | IC50 [4] [µM] | IC50 [5] [µM] | effect of inhibiting tumor cell growth [5] | effect of inhibiting tumor cell growth [6] | IC50 [7] [µM] | IC50 [8] [µM] | effect of inhibiting tumor cell growth [8] | expression of CDCP1 [9] | IC50 [10] [µM] | effect of inhibiting tumor cell growth [10] | effect of inhibiting tumor cell growth [11] | IC50 [11] [µM] | effect of inhibiting tumor cell growth [12] | IC50 [12] [µM]
COc1ccc(OC)c(/C=N/Nc2nc(CCN3C(=O)c4ccccc4C3=O)cs2)c1 [2X-0295] | stronger tumor cell cytotoxicity | + | 79 | + | 78.4 | 53.2 | + | + | 77.4 | 267 | + | reduce the expression of CDCP1 | 75.2 | + | + | 72 | + | 1020
CSc1ccc(/C=C(/C#N)c2nc(CCN3C(=O)c4ccccc4C3=O)cs2)cc1 [4X-0296] | stronger tumor cell cytotoxicity | + | 73.6 | + | 96.2 | 39.3 | + | + | 79.2 | 447 | + | reduce the expression of CDCP1 | 92 | + | + | 94.5 | + | 167
N#C/C(=C\c1cccc2ccccc12)c1nc(CCN2C(=O)c3ccccc3C2=O)cs1 [6X-0309] | – | + | 89.4 | + | 114 | 628 | + | + | 82.2 | 385 | + | – | 89.8 | + | + | 93.8 | + | > 125
N#C/C(=C\c1ccc(OCc2cccc(C(F)(F)F)c2)cc1)c1nc(CCN2C(=O)c3ccccc3C2=O)cs1 [6X-0310] | – | + | 111 | + | 141 | 54.6 | + | + | 58.9 | 250 | + | reduce the expression of CDCP1 | 176 | + | + | 116 | + | 200
N#C/C(=C\C=C\c1ccccc1)c1nc(CCN2C(=O)c3ccccc3C2=O)cs1 [6X-0311] | – | + | > 125 | + | 411 | > 50 | + | + | 231 | 590 | + | – | > 125 | + | + | 505 | + | 211
O=C1c2ccccc2C(=O)N1CCc1csc(-c2ccccc2)n1 [11W-0296] | – | + | 259 | + | 92 | 175 | + | + | 62.6 | 147 | + | – | 1260 | + | + | 234 | + | 421
O=C1c2ccccc2C(=O)N1CCc1csc(COc2cccc(C(F)(F)F)c2)n1 [12W-0232] | – | + | 99.2 | + | 103 | > 50 | + | + | 73.6 | 77.7 | + | – | 138 | + | + | 119 | + | 184
O=C1c2ccccc2C(=O)N1CCc1csc(COc2ccccc2Cl)n1 [12W-0264] | stronger tumor cell cytotoxicity | + | 88.9 | + | > 125 | 40.9 | + | + | 59.7 | 151 | + | reduce the expression of CDCP1 | 99.2 | + | + | 138 | + | 162
O=C1c2ccccc2C(=O)N1CCc1csc(-c2ccccn2)n1 [12W-0266] | – | + | 169 | + | 184 | 88.8 | + | + | 122 | 134 | + | – | 429 | + | + | 253 | + | 190
O=C1c2ccccc2C(=O)N1CCc1csc(-c2ccc(F)cc2)n1 [12W-0272] | – | + | 823 | + | 600 | 130 | + | + | 134 | 264 | + | – | 391 | + | + | 845 | + | 177
Cc1ccc(-c2nc(CCN3C(=O)c4ccccc4C3=O)cs2)cc1 [12W-0274] | – | + | 161 | + | 125 | 80.6 | + | + | 21.8 | 472 | + | – | 913 | + | + | 203 | + | > 125
O=C1c2ccccc2C(=O)N1CCc1csc(-c2cccc(F)c2)n1 [12W-0275] | – | + | 103 | + | 129 | 97 | + | + | 109 | 441 | + | – | 212 | + | + | 156 | + | 199
O=C1c2ccccc2C(=O)N1CCc1csc(-c2nc(CCN3C(=O)c4ccccc4C3=O)cs2)n1 [12W-0290] | – | + | 399 | + | 147 | 84.2 | + | + | 69.4 | 3980 | + | – | 845 | + | + | 159 | + | > 125

— patent publication US20220202783A1, “Use Of ADAM9 Inhibitor As Immunomodulator” (China Medical University, priority 2019, published 2022)
